Assay [1] concerns the target T1, human progesterone receptor-A [PRA] isoform (Homo sapiens, UniProt P06401).
T1 construct: host or cells: insect SF21 cells (baculovirus)
T1 sequence (P06401 1-769 isoform P06401-2): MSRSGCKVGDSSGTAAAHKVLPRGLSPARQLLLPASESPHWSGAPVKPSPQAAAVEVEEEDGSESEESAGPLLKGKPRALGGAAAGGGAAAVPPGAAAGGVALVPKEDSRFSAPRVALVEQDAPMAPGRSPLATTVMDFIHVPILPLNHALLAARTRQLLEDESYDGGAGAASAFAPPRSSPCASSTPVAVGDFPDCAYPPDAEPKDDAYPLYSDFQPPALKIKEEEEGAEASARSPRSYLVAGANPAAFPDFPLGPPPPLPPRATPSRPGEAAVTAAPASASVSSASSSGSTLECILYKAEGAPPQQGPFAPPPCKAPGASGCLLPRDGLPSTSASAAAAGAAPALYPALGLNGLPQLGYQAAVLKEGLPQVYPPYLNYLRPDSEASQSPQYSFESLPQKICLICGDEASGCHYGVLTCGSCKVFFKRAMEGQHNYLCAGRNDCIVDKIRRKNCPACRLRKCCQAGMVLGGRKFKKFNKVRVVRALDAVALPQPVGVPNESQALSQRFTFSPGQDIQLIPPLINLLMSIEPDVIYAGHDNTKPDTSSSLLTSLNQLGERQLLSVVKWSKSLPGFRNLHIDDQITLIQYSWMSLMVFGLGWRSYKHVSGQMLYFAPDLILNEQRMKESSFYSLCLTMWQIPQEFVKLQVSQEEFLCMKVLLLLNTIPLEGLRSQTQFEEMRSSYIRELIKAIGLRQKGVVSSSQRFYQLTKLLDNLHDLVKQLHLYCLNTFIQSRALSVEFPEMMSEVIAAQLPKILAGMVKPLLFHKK
The assay is described as follows: Radioligand binding with human progesterone receptor cytosol ([3H]-progesterone competition). The conditions noted are these: PRA cytosol expressed in insect SF21 cells, [3H]Prog ~0.8 nM, 4° C. overnight; Ki by Cheng-Prusoff, KL ~4.5 nM; read-out: Ki (nM) PR.

For assay [2], the target named is T2, human glucocorticoid receptor-α [GRX] isoform (Homo sapiens, UniProt P04150).
T2 construct: host or cells: insect SF21 cells (baculovirus)
T2 sequence (P04150 1-777): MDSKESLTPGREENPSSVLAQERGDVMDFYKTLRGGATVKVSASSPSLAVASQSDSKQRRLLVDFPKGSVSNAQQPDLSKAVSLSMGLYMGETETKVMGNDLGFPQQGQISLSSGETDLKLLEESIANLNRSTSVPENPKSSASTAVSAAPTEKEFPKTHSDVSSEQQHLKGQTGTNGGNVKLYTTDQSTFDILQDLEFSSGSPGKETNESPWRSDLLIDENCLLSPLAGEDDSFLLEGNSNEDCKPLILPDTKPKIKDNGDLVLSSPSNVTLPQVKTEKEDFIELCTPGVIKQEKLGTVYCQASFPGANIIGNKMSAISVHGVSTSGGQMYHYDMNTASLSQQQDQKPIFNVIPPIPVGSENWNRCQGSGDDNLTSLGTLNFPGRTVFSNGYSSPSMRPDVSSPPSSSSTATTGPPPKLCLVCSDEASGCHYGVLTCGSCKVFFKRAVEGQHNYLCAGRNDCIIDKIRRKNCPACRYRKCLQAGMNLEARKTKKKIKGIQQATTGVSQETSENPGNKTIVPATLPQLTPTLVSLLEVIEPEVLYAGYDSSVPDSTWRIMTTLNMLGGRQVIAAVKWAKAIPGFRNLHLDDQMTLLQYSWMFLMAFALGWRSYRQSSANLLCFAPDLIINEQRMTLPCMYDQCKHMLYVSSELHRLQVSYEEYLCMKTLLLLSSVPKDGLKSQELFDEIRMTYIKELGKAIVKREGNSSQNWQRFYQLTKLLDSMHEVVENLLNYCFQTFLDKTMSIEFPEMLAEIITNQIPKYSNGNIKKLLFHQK
Nature of the assay: Radioligand binding with human glucocorticoid receptor cytosol ([3H]-dexamethasone competition). The note with it: GRX cytosol expressed in insect SF21 cells, [3H]-Dex ~0.9 nM, 4° C. overnight; Ki by Cheng-Prusoff, KL ~[…]; read-out: Ki (nM) GR.

SMILES strings stand for the structures. A value given as a limit tells only on which side of the number the result lay.

For the molecule `C=C1CC(C)(C)Nc2ccc3c(c21)C(c1ccccc1)Oc1cccc(OC(F)(F)Br)c1-3` (centres unmarked) [Example 347, 10-(Bromodifluoromethoxy)-5-phenyl-2,2-dimethyl-4-methylene-2,3,4,5-tetrahydro-1H-chromeno[3,4-f]quinoline], the inhibitory constant (Ki) in assay [1] is at least 10000 nM; in assay [2], 128 nM.
Consider `COc1c(O)ccc2c1-c1ccc3c(c1C(Cc1ccccc1F)O2)C(C)=CC(C)(C)N3` (centres unmarked) [Example 348, 2,5-Dihydro-9-hydroxy-10-methoxy-2,2,4-trimethyl-5-((2-fluorophenyl)methyl)-1H-[1]benzopyranol[3,4-f]quinoline], for which the Ki was 171 nM in assay [1] and 0.89 nM in assay [2].
Consider `COc1cccc2c1-c1ccc3c(c1C(=Cc1cc(C)no1)O2)C(C)=CC(C)(C)N3` [Example 350, 10-Methoxy-5-(3-methylisoxazol-5-yl)methyidene-2,5-dihydro-5-phenyl-2,2,4-trimethyl-1H-[1]benzopyrano[3,4-f]quinoline], for which the Ki was at least 10000 nM in assay [1] and 6.22 nM in assay [2].
As to `COc1cccc2c1-c1ccc3c(c1C(=Cc1cccc(Cl)n1)O2)C(C)=CC(C)(C)N3` [Example 352], the Ki in assay [1] is at least 10000 nM; in assay [2] it was 58 nM.
As to `CCC(C)=C1Oc2cccc(OC)c2-c2ccc3c(c21)C(C)=CC(C)(C)N3` [Example 355, 10-Methoxy-5-(1-methylpropylidene)-2,5-dihydro-5-phenyl-2,2,4-trimethyl-1H-[1]benzopyrano[3,4-f]quinoline], the Ki in assay [1] is 4280 nM; in assay [2] it was 27 nM.
As for `COc1cccc2c1-c1ccc3c(c1C(c1ccccc1)O2)C(C)=[N+]([O-])C(C)(C)N3` (centres unmarked) [Example 357, 2,5-Dihydro-10-methoxy-2,2,4-trimethyl-3-oxide-5-phenyl-1H-[1]benzopyrano[3,4-f]quinazoline], the Ki in assay [1] was at least 10000 nM; in assay [2], 59.8 nM.
For `COc1cccc2c1-c1ccc3c(c1C(c1ccccc1)O2)C(C)=NC(C)(C)N3` (centres unmarked) [Example 358, 2,5-Dihydro-10-methoxy-2,2,4-trimethyl-5-phenyl-1H-[1]benzopyrano[3,4-f]quinazoline], the figures for the Ki in assay [1] and in assay [2] were 8960 nM and 4.2 nM, respectively.
As for `C=CCC1Oc2cccc(OC)c2-c2ccc3c(c21)C(C)=CC1(CCOCC1)N3` (centres unmarked) [Example 359, 2,5-Dihydro-10-methoxy-2,2-[spiro(tetrahydro-4-pyranyl)]-4-methyl-5-ally-1H-[1]benzopyrano[3,4-f]quinoline], the Ki in assay [1] was 2220 nM; in assay [2], 11.3 nM.
Regarding `C=CCC1Oc2cccc(OC)c2-c2ccc3c(c21)C(C)=CC(CC)(CC)N3` (centres unmarked) [Example 361, 2,5-Dihydro-10-methoxy-2,2-diethyl-4-methyl-5-allyl-1H-[1]benzopyrano[3,4-f]quinoline], the Ki in assay [1] turned out to be 9140 nM; in assay [2], 95.7 nM.
Take `C=CCC1Oc2cccc(OC)c2-c2ccc3c(c21)C(C)=C(C)C(C)(C)N3` (centres unmarked) [Example 362, 2,5-Dihydro-10-methoxy-2,2,3,4-tetramethyl-5-allyl-1H-[1]benzopyrano[3,4-f]quinoline]: the inhibition constant Ki was found to be 3370 nM in assay [1] and 6.5 nM in assay [2].
As for `C=CCC1Oc2cccc(OC)c2-c2ccc3c(c21)C(CC)=CC(C)(C)N3` (centres unmarked) [Example 363, 2,5-Dihydro-10-methoxy-2,2-dimethyl-4-ethyl-5-allyl-1H-[1]benzopyrano[3,4-f]quinoline], the values for the Ki in assay [1] and in assay [2] were 3940 nM and 5 nM, respectively.
For the molecule `C=CCC1Oc2cccc(OC)c2-c2ccc3c(c21)C=C(C)C(C)(C)N3` (centres unmarked) [Example 364, 2,5-Dihydro-10-methoxy-2,2,3-trimethyl-5-allyl-1H-[1]benzopyrano[3,4-f]quinoline], the Ki is at least 10000 nM in assay [1] and 424 nM in assay [2].
`COc1c(O)ccc2c1-c1ccc3c(c1/C(=C/c1cc(F)ccc1F)O2)C(C)=CC(C)(C)N3` [Example 366, Z-5-(2,5-Difluorobenzylidenyl)-9-hydroxy-10-methoxy-2,2,4-trimethyl-1H-2,5-dihydro-[1]benzopyrano[3,4-f]quinoline]: the figures for the Ki in assay [1] and in assay [2] were 83.9 nM and 2.1 nM, respectively.

As usually defined, the Ki is the dissociation constant of the complex between target and ligand, obtained from inhibition or displacement.

Values taken from US6506766B1 (Abbott Laboratories, priority 1998, dated 2003).
